# Experiments:
# Test in all cases: Kinase specificity assay (33P phosphoryl transfer, LCCA or AlphaScreen)
# Format in all cases: biochemical
# [1] = molecular target: T1, PKCe (Homo sapiens, UniProt Q02156); details: ATP close to KM; read-out: PKCe inhibition, IC50
# T1 sequence (Q02156 1-737): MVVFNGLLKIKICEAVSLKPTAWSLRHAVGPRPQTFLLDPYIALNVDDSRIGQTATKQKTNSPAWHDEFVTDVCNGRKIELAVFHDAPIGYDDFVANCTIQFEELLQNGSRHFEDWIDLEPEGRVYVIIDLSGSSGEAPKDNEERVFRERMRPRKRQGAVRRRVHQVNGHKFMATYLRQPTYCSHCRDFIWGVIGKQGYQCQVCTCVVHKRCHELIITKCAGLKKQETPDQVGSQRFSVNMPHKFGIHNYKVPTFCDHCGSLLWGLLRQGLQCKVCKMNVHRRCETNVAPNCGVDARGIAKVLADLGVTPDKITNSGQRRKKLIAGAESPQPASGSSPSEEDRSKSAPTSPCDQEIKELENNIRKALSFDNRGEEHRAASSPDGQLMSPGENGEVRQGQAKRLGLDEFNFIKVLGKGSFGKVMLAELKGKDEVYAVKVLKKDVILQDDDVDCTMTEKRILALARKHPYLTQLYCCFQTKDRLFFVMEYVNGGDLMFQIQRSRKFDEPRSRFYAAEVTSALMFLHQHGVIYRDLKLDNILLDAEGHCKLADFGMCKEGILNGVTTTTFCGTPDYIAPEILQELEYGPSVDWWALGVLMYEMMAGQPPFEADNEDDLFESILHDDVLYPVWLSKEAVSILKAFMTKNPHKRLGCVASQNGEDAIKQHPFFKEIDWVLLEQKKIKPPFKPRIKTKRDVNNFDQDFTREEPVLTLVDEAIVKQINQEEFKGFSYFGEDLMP
# Experimental: (§1) Kinase activity and compound inhibition are investigated using one or more of the three assay formats described below. The ATP concentrations for each assay are selected to be close to the Michaelis-Menten constant (KM) for each individual kinase. Dose-response experiments are performed at 10 different inhibitor concentrations in a 384-well plate format. The data are fitted to the following four-parameter equation: Y=Min+(Max−Min)/(1+(X/IC50)^H) where Y is the observed signal, X is the inhibitor concentration, Min is the background signal in the absence of enzyme (0% enzyme activity), Max is the signal in the absence of inhibitor (100% enzyme activity), IC50 is the inhibitor concentration at 50% enzyme inhibition and H represents the empirical Hill's slope to measure the cooperativity. Typically H is close to unity. ^33P Phosphoryl Transfer Assay:
# (§2) Greiner 384-well white, clear bottom, high binding plates are coated with 2 μg/well of protein or peptide substrate in a 50 μL volume overnight at ambient temperature. The coating buffer typically contains 40 μg/mL substrate, 22.5 mM Na2CO3, 27.5 mM NaHCO3, 150 mM NaCl and 3 mM NaN3. The coating solution is aspirated and the plates are washed once with 50 μL of assay buffer and padded dry. Subsequently compounds and enzymes are mixed with γ^33P-ATP (3.3 μCi/nmol) in a total volume of 20 uL in suitable assay buffers. The mixture is incubated at ambient temperature for 1.5-2.5 hrs and terminated by aspiration using a Molecular Devices EMBLA 96-head plate washer. The plates are subsequently washed 6-12 times with PBST or TBS buffer. Scintillation fluid (50 μl/well) is then added, the plates are sealed and activity assessed by liquid scintillation spectrometry using a Perkin Elmer MicroBeta TriLux.
# (§3) In the LCCA assays, kinase activity is measured as the percent ATP consumed following the kinase reaction using luciferase-luciferin-coupled chemiluminescence. Greiner 384-well white, clear bottom, medium binding plates are used for LCCA. Briefly, the kinase reaction is initiated by mixing compounds, ATP and kinase in a 20 uL volume. The mixture is incubated at ambient temperature for 2-4 hrs. At the end of the kinase reaction, a 20 uL luciferase-luciferin mix is added and the chemiluminescent signal is read using a Wallac Victor^2 reader. The luciferase-luciferin mix consists of 50 mM HEPES, pH 7.8, 8.5 ug/mL oxalic acid (pH 7.8), 5 (or 50) mM DTT, 0.4% Triton X-100, 0.25 mg/mL coenzyme A, 63 uM AMP, 28 ug/mL luciferin and 40,000 units of light/mL luciferase. For the LCCA assays, total ATP consumption has been standardized to 25-45% and the IC50 values correlates well with those determined by radiometric assays.
# (§4) AlphaScreen technology is a proximity assay which utilizes the increase in fluorescent signal when donor and acceptor beads are close in proximity. Biotinylated poly(Glu,Tyr) 4:1 is used as the kinase substrate, in conjunction with streptavidin-coated donor beads and anti-phosphortyrosine antibody PY100-coated acceptor beads. Upon phosphorylation, the peptide substrate can bind to both donor and acceptor beads giving rise to an increase in fluorescence. Compounds, ATP, biotinylated poly(Glu, Tyr) and kinases are mixed in a volume of 20 uL for 1 hr at ambient temperature using Greiner 384-well white clear bottom medium binding plates. Following incubation a 10 uL solution containing […] AlphaScreen beads, 75 mM Hepes, pH 7.4, 300 mM NaCl, 120 mM EDTA, 0.3% BSA and 0.03% Tween-20 is added to each well. After 2-16 hr incubation of the beads, plates are read in a Perkin Elmer AlphaQuest reader. The IC50 values correlates well with those of radiometric assays.
# [2] = molecular target: EGFR (Homo sapiens, UniProt P00533); details: ATP close to KM; read-out: EGFR inhibition, IC50
# EGFR, sequence (P00533 25-1210): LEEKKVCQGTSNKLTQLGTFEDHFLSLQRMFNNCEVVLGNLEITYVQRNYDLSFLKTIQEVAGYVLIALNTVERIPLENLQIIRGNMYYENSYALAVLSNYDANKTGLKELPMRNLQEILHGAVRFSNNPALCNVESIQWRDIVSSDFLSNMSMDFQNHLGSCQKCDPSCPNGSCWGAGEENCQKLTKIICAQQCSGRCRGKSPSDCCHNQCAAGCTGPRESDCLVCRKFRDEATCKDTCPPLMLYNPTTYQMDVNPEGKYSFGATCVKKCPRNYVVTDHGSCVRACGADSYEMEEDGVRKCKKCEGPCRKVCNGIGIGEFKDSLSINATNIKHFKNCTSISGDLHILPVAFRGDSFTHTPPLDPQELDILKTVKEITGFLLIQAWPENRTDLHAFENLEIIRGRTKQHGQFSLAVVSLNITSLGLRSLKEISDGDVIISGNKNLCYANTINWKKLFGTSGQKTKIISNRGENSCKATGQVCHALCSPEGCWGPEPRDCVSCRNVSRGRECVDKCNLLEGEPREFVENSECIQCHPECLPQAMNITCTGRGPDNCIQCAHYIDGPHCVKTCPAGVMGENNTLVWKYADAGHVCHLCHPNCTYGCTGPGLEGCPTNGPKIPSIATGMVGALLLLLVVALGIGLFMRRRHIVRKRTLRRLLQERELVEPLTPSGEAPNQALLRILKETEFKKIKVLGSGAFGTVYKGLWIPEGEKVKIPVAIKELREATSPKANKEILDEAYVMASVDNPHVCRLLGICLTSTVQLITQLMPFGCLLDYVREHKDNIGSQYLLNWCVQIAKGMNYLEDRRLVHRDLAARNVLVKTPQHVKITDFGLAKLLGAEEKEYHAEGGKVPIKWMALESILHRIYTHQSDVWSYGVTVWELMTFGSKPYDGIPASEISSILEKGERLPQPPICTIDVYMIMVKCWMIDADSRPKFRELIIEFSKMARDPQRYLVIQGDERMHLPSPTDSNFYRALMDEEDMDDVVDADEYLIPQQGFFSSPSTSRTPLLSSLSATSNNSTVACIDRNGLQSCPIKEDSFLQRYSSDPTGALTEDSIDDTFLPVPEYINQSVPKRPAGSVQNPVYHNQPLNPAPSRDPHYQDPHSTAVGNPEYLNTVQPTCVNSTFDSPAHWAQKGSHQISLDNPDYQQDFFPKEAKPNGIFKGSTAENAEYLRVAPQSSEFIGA
# Experimental: as §1, §2, §3, §4
# [3] = molecular target: IRK (Homo sapiens, UniProt P06213); details: ATP close to KM; read-out: IRK inhibition, IC50
# IRK, sequence (P06213 28-1382): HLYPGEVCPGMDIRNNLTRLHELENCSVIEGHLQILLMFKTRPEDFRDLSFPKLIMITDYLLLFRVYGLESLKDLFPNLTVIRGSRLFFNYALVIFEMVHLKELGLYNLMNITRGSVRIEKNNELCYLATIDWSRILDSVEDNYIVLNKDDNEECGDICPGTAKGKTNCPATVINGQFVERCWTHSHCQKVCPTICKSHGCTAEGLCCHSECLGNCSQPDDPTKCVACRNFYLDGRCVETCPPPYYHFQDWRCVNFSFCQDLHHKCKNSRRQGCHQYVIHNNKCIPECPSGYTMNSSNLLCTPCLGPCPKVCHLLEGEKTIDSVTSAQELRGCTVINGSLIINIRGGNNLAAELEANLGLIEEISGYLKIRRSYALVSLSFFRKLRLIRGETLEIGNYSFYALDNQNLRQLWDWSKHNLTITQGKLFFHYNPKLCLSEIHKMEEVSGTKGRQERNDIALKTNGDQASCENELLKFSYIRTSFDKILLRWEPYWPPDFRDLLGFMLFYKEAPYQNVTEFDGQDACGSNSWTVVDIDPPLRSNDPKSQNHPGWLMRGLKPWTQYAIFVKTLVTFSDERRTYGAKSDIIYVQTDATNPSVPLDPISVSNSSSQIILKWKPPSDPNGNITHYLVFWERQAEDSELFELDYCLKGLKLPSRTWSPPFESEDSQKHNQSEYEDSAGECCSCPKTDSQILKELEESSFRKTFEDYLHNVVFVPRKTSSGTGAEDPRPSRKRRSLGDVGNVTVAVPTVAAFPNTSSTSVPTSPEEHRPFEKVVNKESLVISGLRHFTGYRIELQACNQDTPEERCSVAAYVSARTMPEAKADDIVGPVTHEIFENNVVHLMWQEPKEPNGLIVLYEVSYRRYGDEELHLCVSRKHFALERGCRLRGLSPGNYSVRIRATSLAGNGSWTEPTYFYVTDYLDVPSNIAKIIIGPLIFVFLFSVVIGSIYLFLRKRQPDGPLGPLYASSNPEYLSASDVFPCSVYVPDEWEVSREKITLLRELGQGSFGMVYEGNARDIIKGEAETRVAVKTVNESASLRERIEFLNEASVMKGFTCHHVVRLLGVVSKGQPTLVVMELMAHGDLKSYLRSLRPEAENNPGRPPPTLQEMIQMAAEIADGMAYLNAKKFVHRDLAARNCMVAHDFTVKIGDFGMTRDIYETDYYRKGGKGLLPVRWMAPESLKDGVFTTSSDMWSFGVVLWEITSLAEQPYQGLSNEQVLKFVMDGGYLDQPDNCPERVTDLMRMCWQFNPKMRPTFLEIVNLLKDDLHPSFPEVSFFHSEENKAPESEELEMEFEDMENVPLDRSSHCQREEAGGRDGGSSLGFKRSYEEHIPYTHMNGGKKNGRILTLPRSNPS
# Experimental: as §1, §2, §3, §4
# [4] = molecular target: PKA (Homo sapiens, UniProt P17612); details: ATP close to KM; read-out: PKA inhibition, IC50
# Experimental: as §1, §2, §3, §4
# [5] = molecular target: Cdc2 (Homo sapiens, UniProt P06493); details: ATP close to KM; read-out: Cdc2 inhibition, IC50
# Cdc2, sequence (P06493 whole entry): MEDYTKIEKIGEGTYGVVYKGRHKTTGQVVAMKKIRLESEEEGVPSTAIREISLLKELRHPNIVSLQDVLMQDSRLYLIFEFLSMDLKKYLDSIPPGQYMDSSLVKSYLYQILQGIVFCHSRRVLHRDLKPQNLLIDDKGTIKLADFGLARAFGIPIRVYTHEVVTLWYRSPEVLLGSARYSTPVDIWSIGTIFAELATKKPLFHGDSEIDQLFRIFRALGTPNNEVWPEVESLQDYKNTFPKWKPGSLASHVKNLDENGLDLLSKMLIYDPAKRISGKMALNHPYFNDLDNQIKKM
# Cdc2, sequence (P14635 whole entry partner): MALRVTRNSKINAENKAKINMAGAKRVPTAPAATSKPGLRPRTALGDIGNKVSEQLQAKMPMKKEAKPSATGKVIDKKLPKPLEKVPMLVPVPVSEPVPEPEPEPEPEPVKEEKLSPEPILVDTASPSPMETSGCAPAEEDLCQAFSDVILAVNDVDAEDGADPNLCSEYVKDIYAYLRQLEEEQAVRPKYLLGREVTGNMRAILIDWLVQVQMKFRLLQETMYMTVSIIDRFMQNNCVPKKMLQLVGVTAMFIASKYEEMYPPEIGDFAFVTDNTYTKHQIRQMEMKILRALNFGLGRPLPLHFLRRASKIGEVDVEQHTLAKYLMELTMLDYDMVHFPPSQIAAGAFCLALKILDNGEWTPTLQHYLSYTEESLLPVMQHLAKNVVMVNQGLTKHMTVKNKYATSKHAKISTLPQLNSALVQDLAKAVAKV
# Experimental: as §1, §2, §3, §4
compound,measurement,setting,value
"NC(=O)c1nc(-c2cccc3ccccc23)cnc1N [Example 2, 3-Amino-6-naphthalen-1-ylpyrazine-2-carboxamide]",IC50,[1],≥ 10 µM
same,IC50,[2],≥ 10 µM
same,IC50,[3],≥ 10 µM
same,IC50,[4],1 to 10 µM
same,IC50,[5],≥ 10 µM
